From PubChem BioAssay AID280 (DTP/NCI, 2004)
“And” between values parts separate entries of the source, which are not always exact repeats. Equal values may be shown once. Toxic doses and inconclusive results are not listed. Starred links: 1 amine or outer side, 2 acyl side, 3 side chain; linkers in the order of their positions; H or OH if unused. Positions of bridges follow the written chain, without caps; N, C: chain ends. Non-standard residues stand in square brackets, D forms with d. Residues, ends and D or L forms follow the SMILES beside them. Chains are numbered I, II in the order given. Actinocin(9to1) = Cc1c2oc3c(C)ccc(C(=O)[*:1])c3nc-2c(C(=O)[*:2])c(N)c1=O; aThr = C[C@H](O)[C@H](N)C(=O)O; NMeV = CN[C@H](C(=O)O)C(C)C; Sar = CNCC(=O)O

Test system: nude mice, LOX melanoma ip, survival T/C
Assay: NCI In Vivo Anticancer Drug Screen. Data for tumor model Human Amelanotic Melanoma (LOX) (intraperitoneal) in NU/NU BALB/C (nude) mice
Settings: endpoint: median survival time, higher = longer survival
Protocol: The antitumor activity of compounds was measured in mice bearing transplantable tumors. Survival or tumor size were measured and the results are expressed as the measurement made in the treated group (T) divided by the measurement made in the vehicle treated control group (C). The tumor model used in this assay is Human Amelanotic Melanoma (LOX) (intraperitoneal) in NU/NU BALB/C (nude) mice

[1] = dose: 50.0 mg/kg/injection, schedule: Q04DX003 (ip), vehicle: saline with Tween-80
[2] = dose: 100.0 mg/kg/injection, schedule: Q04DX003 (ip), vehicle: saline with Tween-80
[3] = dose: 200.0 mg/kg/injection, schedule: Q04DX003 (ip), vehicle: saline with Tween-80
[4] = dose: 75.0 mg/kg/injection, schedule: Q04DX003 (ip), vehicle: saline with Tween-80
[5] = dose: 150.0 mg/kg/injection, schedule: Q04DX003 (ip), vehicle: saline with Tween-80
[6] = dose: 300.0 mg/kg/injection, schedule: Q04DX003 (ip), vehicle: saline with Tween-80

With `Cc1ccc2c(c1)n([O-])c1cc(Cl)ccc1[n+]2=O` the T/C [1] was 111 % of control, the T/C [2] was 123 % of control and the T/C (dose: 172.0 mg/kg/injection, schedule: Q04DX003 (ip), vehicle: saline with Tween-80) was 116 % of control. For the same molecule, the T/C (dose: 288.0 mg/kg/injection, schedule: Q04DX003 (ip), vehicle: saline with Tween-80) was 108 % of control, the T/C (dose: 400.0 mg/kg/injection, schedule: Q04DX003 (ip), vehicle: saline with Tween-80) was 111 % of control and the T/C (dose: 480.0 mg/kg/injection, schedule: Q04DX003 (ip), vehicle: saline with Tween-80) was 113 % of control. For the same molecule, the T/C (dose: 800.0 mg/kg/injection, schedule: Q04DX003 (ip), vehicle: saline with Tween-80) was 107 % of control and the T/C (dose: 1333.0 mg/kg/injection, schedule: Q04DX003 (ip), vehicle: saline with Tween-80) was 110 % of control.
With `O=C(C/C(=N\C(=S)Nc1cc(C(F)(F)F)ccc1Cl)NO)N1CCCC1` the T/C [1] was 115 % of control, the T/C [2] was 96 % of control and the T/C [3] was 108 % of control.
With `CCCCNP1(NCCCC)=NP(NCCCC)(NCCCC)=NP(NCCCC)(NCCCC)=NP(NCCCC)(NCCCC)=N1` the T/C (dose: 32.4 mg/kg/injection, schedule: Q04DX003 (ip), vehicle: saline with Tween-80) was 116 % of control, the T/C (dose: 54.0 mg/kg/injection, schedule: Q04DX003 (ip), vehicle: saline with Tween-80) was 105 % of control and 98 % of control and the T/C [4] was 113 % of control. For the same molecule, the T/C (dose: 90.0 mg/kg/injection, schedule: Q04DX003 (ip), vehicle: saline with Tween-80) was 105 % of control and 120 % of control.
In the case of `CC(=O)N(C)c1ccc(Nc2cc(C)[nH]c3ccc4ncnc4c23)cc1`, the T/C (dose: 12.5 mg/kg/injection, schedule: Q04DX003 (ip), vehicle: saline with Tween-80) is reported as 102 % of control, the T/C (dose: 36.0 mg/kg/injection, schedule: Q04DX003 (ip), vehicle: saline) is reported as 101 % of control and the T/C [1] is reported as 99 % of control. The T/C (dose: 60.0 mg/kg/injection, schedule: Q04DX003 (ip), vehicle: saline) was 110 % of control, the T/C [2] was 91 % of control and the T/C (dose: 100.0 mg/kg/injection, schedule: Q04DX003 (ip), vehicle: saline) was 100 % of control. For the same molecule, the T/C (dose: 167.0 mg/kg/injection, schedule: Q04DX003 (ip), vehicle: saline) was 94 % of control.
With `Cc1c2oc3c(C)ccc(C(=O)N[C@@H]4C(=O)N[C@H](C(C)C)C(=O)N5CCC[C@H]5C(=O)N(C)CC(=O)N(C)[C@@H](C(C)C)C(=O)O[C@H]4C)c3nc-2c(C(=O)N[C@@H]2C(=O)N[C@H](C(C)C)C(=O)N3CCC[C@H]3C(=O)N(C)CC(=O)N(C)[C@@H](C(C)C)C(=O)O[C@H]2C)c(N)c1=O` (I: [aThr][dV]P[Sar][NMeV] / II: [aThr][dV]P[Sar][NMeV]; ester I:1-I:C, II:1-II:C; linker I:N-II:N via Actinocin(9to1)) the T/C (dose: 0.07 mg/kg/injection, schedule: Q04DX003 (ip), vehicle: saline) was 185 % of control, the T/C (dose: 0.13 mg/kg/injection, schedule: Q01DX001 (ip), vehicle: saline) was 151 % of control and the T/C (dose: 0.13 mg/kg/injection, schedule: Q04DX003 (ip), vehicle: saline) was 269 % of control. The T/C (dose: 0.25 mg/kg/injection, schedule: Q01DX001 (ip), vehicle: saline) was 153 % of control, the T/C (dose: 0.25 mg/kg/injection, schedule: Q04DX003 (ip), vehicle: saline) was 337 % of control and the T/C (dose: 0.5 mg/kg/injection, schedule: Q01DX001 (ip), vehicle: saline) was 264 % of control. The T/C (dose: 0.5 mg/kg/injection, schedule: Q04DX003 (ip), vehicle: saline) was 337 % of control, the T/C (dose: 1.0 mg/kg/injection, schedule: Q01DX001 (ip), vehicle: saline) was 337 % of control and the T/C (dose: 1.3 mg/kg/injection, schedule: Q04DX003 (ip), vehicle: saline) was 87 % of control. The T/C (dose: 0.13 micrograms/kg/injection, schedule: Q01DX005 (ip), vehicle: saline) was 162 % of control, the T/C (dose: 0.13 micrograms/kg/injection, schedule: Q01DX015 (ip), vehicle: saline) was 207 % of control and the T/C (dose: 25.0 micrograms/kg/injection, schedule: Q01DX005 (ip), vehicle: saline) was 191 % of control. For the same molecule, the T/C (dose: 25.0 micrograms/kg/injection, schedule: Q01DX015 (ip), vehicle: saline) was 337 % of control, the T/C (dose: 50.0 micrograms/kg/injection, schedule: Q01DX005 (ip), vehicle: saline) was 337 % of control and the T/C (dose: 50.0 micrograms/kg/injection, schedule: Q01DX015 (ip), vehicle: saline) was 337 % of control. The T/C (dose: 100.0 micrograms/kg/injection, schedule: Q01DX005 (ip), vehicle: saline) was 337 % of control and the T/C (dose: 100.0 micrograms/kg/injection, schedule: Q01DX015 (ip), vehicle: saline) was 337 % of control.
In the case of `O=C1C=CC2OC(c3ccccc3)C(O)C2O1` (stereo not drawn), the T/C (dose: 12.5 mg/kg/injection, schedule: Q04DX003 (ip), vehicle: DMSO) is reported as 105 % of control, the T/C (dose: 25.0 mg/kg/injection, schedule: Q04DX003 (ip), vehicle: DMSO) is reported as 103 % of control and the T/C (dose: 50.0 mg/kg/injection, schedule: Q04DX003 (ip), vehicle: DMSO) is reported as 103 % of control.
`NC(=O)CCC(N)C(=O)O` (stereo not drawn) was tested, and the T/C (dose: 75.0 mg/kg/injection, schedule: Q04DX003 (ip), vehicle: suspension in saline) was 101 % of control, the T/C (dose: 150.0 mg/kg/injection, schedule: Q04DX003 (ip), vehicle: suspension in saline) was 90 % of control and the T/C (dose: 300.0 mg/kg/injection, schedule: Q04DX003 (ip), vehicle: suspension in saline) was 95 % of control. The T/C (dose: 600.0 mg/kg/injection, schedule: Q04DX003 (ip), vehicle: suspension in saline) was 102 % of control and the T/C (dose: 1200.0 mg/kg/injection, schedule: Q04DX003 (ip), vehicle: suspension in saline) was 101 % of control.
For `CC(=O)c1cccc(NC2C(N)C(NC(=O)N(C)C)(C(C)O)C(C)(O)C2(O)COC(=O)c2c(C)cccc2O)c1` (stereo not drawn), the T/C (dose: 12.5 mg/kg/injection, schedule: Q04DX003 (ip), vehicle: suspension in saline) was 173 % of control.
For `CC(=O)O[C@H]1C(=O)[C@@]2(C)[C@H]([C@H](OC(=O)c3ccccc3)[C@]3(O)C[C@H](OC(=O)[C@H](O)[C@@H](NC(=O)c4ccccc4)c4ccccc4)C(C)=C1C3(C)C)[C@]1(OC(C)=O)CO[C@@H]1C[C@@H]2O`, the T/C (dose: 1.88 mg/kg/injection, schedule: Q01DX009 (ip), vehicle: Klucel (hydroxypropylcellulose) (HPC)) was 172 % of control, the T/C (dose: 3.75 mg/kg/injection, schedule: Q01DX009 (ip), vehicle: Klucel (hydroxypropylcellulose) (HPC)) was 158 % of control and 173 % of control and the T/C (dose: 7.5 mg/kg/injection, schedule: Q01DX009 (ip), vehicle: Klucel (hydroxypropylcellulose) (HPC)) was 170 % of control. For the same molecule, the T/C (dose: 15.0 mg/kg/injection, schedule: Q01DX009 (ip), vehicle: Klucel (hydroxypropylcellulose) (HPC)) was 105 % of control and 93 % of control.
For `NCCSC(C[N+](=O)[O-])c1ccccc1Cl` (stereo not drawn), the T/C (dose: 12.5 mg/kg/injection, schedule: Q04DX003 (ip), vehicle: saline) was 107 % of control, the T/C (dose: 25.0 mg/kg/injection, schedule: Q04DX003 (ip), vehicle: saline) was 115 % of control and the T/C (dose: 50.0 mg/kg/injection, schedule: Q04DX003 (ip), vehicle: saline) was 96 % of control.
With `COc1ccc(/C=C\c2cc(OC)c(OC)c(OC)c2)c(O)c1O` the T/C (dose: 6.25 mg/kg/injection, schedule: Q04DX003 (ip), vehicle: saline + Tween-80 + alcohol) was 97 % of control, the T/C (dose: 12.5 mg/kg/injection, schedule: Q04DX003 (ip), vehicle: saline + Tween-80 + alcohol) was 110 % of control and the T/C (dose: 25.0 mg/kg/injection, schedule: Q04DX003 (ip), vehicle: saline + Tween-80 + alcohol) was 124 % of control.
For `Cc1cc(Br)c2nsnc2c1[N+](=O)[O-]`, the T/C [4] was 112 % of control, the T/C [5] was 103 % of control and the T/C [6] was 112 % of control. The T/C (dose: 600.0 mg/kg/injection, schedule: Q04DX003 (ip), vehicle: saline with Tween-80) was 124 % of control and the T/C (dose: 1200.0 mg/kg/injection, schedule: Q04DX003 (ip), vehicle: saline with Tween-80) was 114 % of control.
In the case of `CNC(=S)SC1=NS(=O)(=O)c2ccccc2N1`, the T/C (dose: 50.0 mg/kg/injection, schedule: Q04DX003 (ip), vehicle: Klucel (hydroxypropylcellulose) (HPC)) is reported as 100 % of control, the T/C (dose: 100.0 mg/kg/injection, schedule: Q04DX003 (ip), vehicle: Klucel (hydroxypropylcellulose) (HPC)) is reported as 104 % of control and the T/C (dose: 200.0 mg/kg/injection, schedule: Q04DX003 (ip), vehicle: Klucel (hydroxypropylcellulose) (HPC)) is reported as 104 % of control.
In the case of `CCCCCCCCCCCCCCCCCCOCC(CO)OC` (stereo not drawn), the T/C [5] is reported as 150 % of control and 151 % of control and the T/C [6] is reported as 160 % of control.
`COc1ccc(C(C)c2cc3c(cc2OC)OCO3)cc1` (stereo not drawn) was tested, and the T/C (dose: 25.0 mg/kg/injection, schedule: Q04DX003 (ip), vehicle: saline with Tween-80) was 114 % of control, the T/C [2] was 158 % of control and the T/C [3] was 198 % of control.
With `Cc1cc(Nc2ccc3c(c2)OCO3)c2cc3c(cc2n1)OCO3` the T/C (dose: 75.0 mg/kg/injection, schedule: Q04DX003 (ip), vehicle: Klucel (hydroxypropylcellulose) (HPC)) was 106 % of control and the T/C (dose: 600.0 mg/kg/injection, schedule: Q04DX003 (ip), vehicle: Klucel (hydroxypropylcellulose) (HPC)) was 152 % of control and 158 % of control.
